Results taken from patent US4263291A, “3,7-Disubstituted-3-cephem-4-carboxylic acid compounds and processes for the preparation thereof” (Fujisawa Pharmaceutical Co., Ltd., priority 1976, dated 1981).
In brackets after ≈: the same amount, converted by molar mass. Read-outs that look alike come from different tables or passages of the source.

Legend:
Assay in all cases: In vitro antibacterial activity, two-fold agar-plate dilution method
Assay type in all cases: cell-based
[1] = test system: E. coli NIHJ JC-2; conditions: Escherichia coli, read-out: MIC (minimal inhibitory concentration)
Method: (§1) In vitro antibacterial activity was determined by the two-fold agar-plate dilution method as described below.
(§2) One loopful of an overnight culture of each test strain in Trypticase-soy broth (10^8 viable cells per ml.) was streaked on heart infusion agar (HI-agar) containing graded concentrations of antibiotics, and the minimal inhibitory concentration (MIC) was expressed in terms of μg/ml. aft er incubation at 37° C. for 20 hours.

[2] = test system: Sh. flexneri 2a; conditions: Shigella flexneri, HI-agar, 37° C., 20 hours, read-out: MIC (minimal inhibitory concentration)
Method: as §1, §2

[3] = test system: Sal. enteritidis; conditions: Salmonella enterica, HI-agar, 37° C., 20 hours, read-out: MIC (minimal inhibitory concentration)
Method: as §1, §2

[4] = test system: Staph. aureus 209P JC-1; conditions: Staphylococcus aureus, read-out: MIC (minimal inhibitory concentration)
Method: as §1, §2

[5] = Staph. aureus 209P JC-1, HI-agar, 37° C., 20 hours
[6] = NIHJJC2, E. coli NIHJ JC-2, HI-agar, 37° C., 20 hours

Row | Structure (SMILES) | MIC ([1]; NIHJJC2, 20 h) [µg/mL] | MIC [2] [µg/mL] | MIC [3] [µg/mL] | MIC [4, 5] [µg/mL] | MIC [1, 6] [µg/mL] | MIC ([4]; 209P, 20 h) [µg/mL]
1 | Cn1nnnc1SCC1=C(C(=O)O)N2C(=O)C(NC(=O)/C(=N\O)c3cnsc3)C2SC1 (stereo not drawn) [Test Compound (4), 7-[2-Hydroxyimino-2-(isothiazol-4-yl)acetamido]-3-(1-methyl-1H-tetrazol-5-yl)thiomethyl-3-cephem-4-carboxylic acid (syn isomer)] | 1.56 (≈ 3.23 µM) | 0.39 (≈ 0.808 µM) | 0.78 (≈ 1.62 µM) | 0.39 (≈ 0.808 µM) | – | –
2 | CO/N=C(\C(=O)NC1C(=O)N2C(C(=O)O)=C(CSc3nnnn3C)CSC12)c1csnn1 (stereo not drawn) [Test Compound (1), 7-[2-Methoxyimino-2-(1,2,3-thiadiazol-4-yl)acetamido]-3-(1-methyl-1H-tetrazol-5-yl)thiomethyl-3-cephem-4-carboxylic acid (syn isomer)] | – | 1.56 (≈ 3.14 µM) | 0.2 (≈ 0.402 µM) | 3.13 (≈ 6.29 µM) | 0.78 (≈ 1.57 µM) | –
3 | CO/N=C(/C(=O)NC1C(=O)N2C(C(=O)O)=C(CSc3nnnn3C)CSC12)c1csnn1 (stereo not drawn) [Test Compound (2), 7-[2-Methoxyimino-2-(1,2,3-thiadiazol-4-yl)acetamido]-3-(1-methyl-1H-tetrazol-5-yl)thiomethyl-3-cephem-4-carboxylic acid (anti isomer)] | – | 12.5 (≈ 25.1 µM) | 6.25 (≈ 12.6 µM) | – | 25 (≈ 50.2 µM) | 12.5 (≈ 25.1 µM)
4 | Cn1nnnc1SCC1=C(C(=O)O)N2C(=O)C(NC(=O)/C(=N\O)c3cnsn3)C2SC1 (stereo not drawn) [Test Compound (3), 7-[2-Hydroxyimino-2-(1,2,5-thiadiazol-3-yl)acetamido]-3-(1-methyl-1H-tetrazol-5-yl)thiomethyl-3-cephem-4-carboxylic acid (syn isomer)] | – | 0.39 (≈ 0.807 µM) | 1.56 (≈ 3.23 µM) | 0.78 (≈ 1.61 µM) | 3.13 (≈ 6.47 µM) | –
